The record followed here is patent US7858624B2, “Piperidine and morpholine renin inhibitors” (Vitae Pharmaceuticals, Inc., priority 2006, dated 2010).

The target of the assay is T1, trypsin-activated recombinant human renin (Homo sapiens, UniProt P00797).
T1 sequence (P00797 67-406): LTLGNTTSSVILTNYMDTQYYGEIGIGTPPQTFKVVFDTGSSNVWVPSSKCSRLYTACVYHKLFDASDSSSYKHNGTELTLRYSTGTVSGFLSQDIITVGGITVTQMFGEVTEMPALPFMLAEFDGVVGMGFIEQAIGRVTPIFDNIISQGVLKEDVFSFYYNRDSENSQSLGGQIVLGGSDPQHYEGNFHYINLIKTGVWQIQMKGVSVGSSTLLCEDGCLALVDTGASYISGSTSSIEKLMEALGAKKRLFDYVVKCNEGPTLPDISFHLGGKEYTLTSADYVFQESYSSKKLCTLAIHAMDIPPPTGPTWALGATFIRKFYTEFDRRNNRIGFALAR
Description: In vitro IC50 for renin, fluorescence increase of internally quenched peptide substrate (protocol of Example 2). Format: biochemical. The note with it: protocol described in Example 2; DABCYL/EDANS peptide substrate, pH 7.0, rt. The protocol:
The sequence of this peptide corresponds to the sequence of human angiotensinogen. The following test protocol is used: All reactions are carried out in a flat bottom white opaque microtiter plate. A 4 μL aliquot of 400 μM renin substrate (DABCYL-γ-Abu-Ile-His-Pro-Phe-His-Leu-Val-Ile-His-Thr-EDANS) in 192 μL assay buffer (50 mM BES, 150 mM NaCl, 0.25 mg/mL bovine serum albumin, pH7.0) is added to 4 μL of test compound in DMSO at various concentrations ranging from 10 μM to 1 nM final concentrations. Next, 100 μL of trypsin-activated recombinant human renin (final enzyme concentration of 0.2-2 nM) in assay buffer is added, and the solution is mixed by pipetting. The increase in fluorescence at 495 nm (excitation at 340 nm) is measured for 60-360 min at rt using a Perkin-Elmer Fusion microplate reader. The slope of a linear portion of the plot of fluorescence increase as a function of time is then determined, and the rate is used for calculating percent inhibition in relation to uninhibited control. […] The IC50 is defined as the concentration of a particular inhibitor that reduces the formation of product by 50% relative to a control sample containing no inhibitor. (Wang G. T. et al. Anal. Biochem. 1993, 210, 351; Nakamura, N. et al. J. Biochem. (Toko) 1991, 109, 741; Murakaini, K. et al. Anal Biochem. 1981, 110, 232).

A word on the IC50: it is the concentration at which inhibition is half-maximal.

`CCCCNC(=O)C[C@H](O)[C@H](CC1CCCCC1)NC(=O)N1CCC[C@@H]([C@@H](OCCNC(=O)OC)c2cccc(Cl)c2)C1` [Example 1, methyl 2-((R)-((R)-1-((2S,3S)-5-(butylamino)-1-cyclohexyl-3-hydroxy-5-oxopentan-2-ylcarbamoyl)piperidin-3-yl)(3-chlorophenyl)methoxy)ethylcarbamate]: the IC50 is 0.113 µM.
